Measured values from US20240366644A1, “ANTI-INFLAMMATORY APPLICATION OF GINSENOSIDE RD” (priority 2022, published 2024).

How the values were obtained:
[1] = tested on: Chronic Obstructive Pulmonary Disease in Rats; test: Lung pathomorphology of rats with chronic obstructive pulmonary disease; format: in vivo, SD rats
[2] = tested on: mice with chronic bronchial asthma; test: Serum IL-4 and INF-γ in OVA-sensitised mice with chronic bronchial asthma; format: in vivo, BALB/c mice; details: for IL-4 in serum / INF-γ in serum: seven days, 24 h after the last excitation
Protocol: After adaptive feeding (20-25° C., a humidity of 50-60%) for one week, the mice were randomly divided into a blank group, a model group, a ginsenoside Rd high-dose group, and a ginsenoside Rd low-dose group, with ten […] in each group.
Except for the blank group, the mice in the other groups were intraperitoneally injected with 0.2 ml of sensitization solution (containing 50 μg of OVA) on the Day 1, Day 8 and Day 15, respectively. Starting on Day 22, the mice in each group were placed in a nebulizer and inhaled with 2% OVA for exciting asthma. This inhalation was performed once a day, 45 min each time, for seven consecutive days.
Administration by gavage was performed 30 min before each asthma stimulation, once a day for seven consecutive days. The blank group and the model group were administrated with normal saline by gavage, the high-dose group was administrated with 10 mg/kg ginsenoside Rd by gavage, and the low-dose group was administrated with 5 mg/kg ginsenoside Rd by gavage.
24 h after the last excitation, the mice were sampled, blood was collected from the eyeballs and separated to obtain serum, and IL-4 and INF-γ in the serum were detected.

[3] = tested on: Chronic Obstructive Pulmonary Disease in Rats; test: Serum TNF-α and IL-8 in rats with chronic obstructive pulmonary disease (LPS + smoking); format: in vivo, SD rats
Protocol: After adaptive feeding (20-25° C., a humidity of 50-60%) for 1 week, the rats were randomly divided into a blank group, a model group, a positive control group, a ginsenoside Rd high-dose group, and a ginsenoside Rd low-dose group, with ten rats in each group.
Model group: on the Day 1 and Day 14, each rat was intraperitoneally injected with 10% chloral hydrate (300 mg/kg) for anesthesia; the head was fixed in a low position; the glottis was exposed; lipopolysaccharide was quickly injected into the trachea; and the rat was kept upright, and swung left and right for 10-20 s, such that the lipopolysaccharide was evenly distributed in the two lungs. On the Days 2-13, and 15-28, the lungs were smoked in a closed organic glass box for 30 min every day, with 15 cigarettes per day.
Positive control group: the animal was anesthetized, and intratracheally injected with lipopolysaccharide, wherein smoking conditions and time were the same as those of the model group; and after tracheal injection of lipopolysaccharide for two weeks, the animal was administrated with Simvastatin by gavage (2.5 mg/kg), and killed after six weeks, and serum was collected.
In accordance with the instructions, the levels of TNF-α and IL-8 in the serum were detected by enzyme-linked immunosorbent assay. The data was expressed as x±s, p<0.05, which meant that it was statistically significant.

[4] = tested on: xylene-induced swelling of mouse ears; test: Xylene-induced swelling of mouse ears; format: in vivo, Kunming mice; details: for Ear mass difference / Swelling degree: 4 h after xylene
Protocol: […] KM mice, weighing 18-22 g, were randomly grouped, with ten mice in each group. The groups include a model group, a positive control group (Indomethacin, 10 mg/kg), a ginsenoside Rd low-dose group (5 mg/kg), and a ginsenoside Rd high-dose group (10 mg/kg). After 30 min of gavage administration of mice (the model group was administrated with the equal volume of 0.5% sodium carboxymethylcellulose by gavage), 0.03 ml of xylene was evenly applied to both sides of the right ear of each mouse in each group to cause inflammations on both sides, and the left ear of the mouse was not applied as a control. After 4 h, the mouse was killed by dislocation of cervical vertebra, the two ears of the mouse were cut off along the auricle, round ear slices of the same size (a diameter of 6 mm) were taken at the same position of the left and right ears and weighed respectively, a mass difference of the two ear slices was used as an ear swelling degree, and a swelling inhibition rate was calculated.

[5] = high-dose 10 mg/kg gavage once a day
[6] = low-dose 5 mg/kg gavage once a day
[7] = 5 mg/kg gavage 30 min before xylene
[8] = 10 mg/kg gavage 30 min before xylene

CC(C)=CCC[C@](C)(O[C@@H]1O[C@H](CO)[C@@H](O)[C@H](O)[C@H]1O)[C@H]1CC[C@]2(C)[C@@H]1[C@H](O)C[C@@H]1[C@@]3(C)CC[C@H](O[C@@H]4O[C@H](CO)[C@@H](O)[C@H](O)[C@H]4O[C@@H]4O[C@H](CO)[C@@H](O)[C@H](O)[C@H]4O)C(C)(C)[C@@H]3CC[C@]12C [Ginsenoside Rd, ginsenoside Rd]
Epithelial cell necrosis Mild ([1]; 5 mg/kg): 6
Epithelial cell necrosis Moderate ([1]; 5 mg/kg): 4
Epithelial cell necrosis Severe ([1]; 5 mg/kg): 0
Interstitial inflammatory cell infiltration Mild ([1]; 5 mg/kg): 6
Interstitial inflammatory cell infiltration Moderate ([1]; 5 mg/kg): 4
Interstitial inflammatory cell infiltration Severe ([1]; 5 mg/kg): 0
Epithelial cell necrosis Mild ([1]; 10 mg/kg): 7
Epithelial cell necrosis Moderate ([1]; 10 mg/kg): 3
Epithelial cell necrosis Severe ([1]; 10 mg/kg): 0
Interstitial inflammatory cell infiltration Mild ([1]; 10 mg/kg): 7
Interstitial inflammatory cell infiltration Moderate ([1]; 10 mg/kg): 3
Interstitial inflammatory cell infiltration Severe ([1]; 10 mg/kg): 0
lung lesions ([1]; 10 mg/kg and 5 mg/kg, compared with the model group): good improvement effects on lung lesions
effect on lung lesions compared with the Simvastatin group ([1]; high-dose group 10 mg/kg): considerable to the Simvastatin group
IL-4 in serum [2, 5]: 36.11 ± 10.98 pg/mL
INF-γ in serum [2, 5]: 102.48 ± 7.81
IL-4 in serum [2, 6]: 10.72 ± 16.74 pg/mL
INF-γ in serum [2, 6]: 95.34 ± 13.59
expression of IL-4 ([2]; mouse, in vivo): reduce the expression of IL-4
expression of INF-γ ([2]; mouse, in vivo): increase the expression of INF-γ
IL-8 in serum ([3]; high-dose 10 mg/kg): 24.88 ± 14.67
TNF-α in serum ([3]; high-dose 10 mg/kg): 12.13 ± 17.06
efficacy on serum inflammatory factors compared with Simvastatin ([3]; high-dose group): considerable to that of Simvastatin
IL-8 in serum ([3]; low-dose 5 mg/kg): 30.97 ± 13.70
TNF-α in serum ([3]; low-dose 5 mg/kg): 12.92 ± 10.20
Ear mass difference [4, 7]: 11.84 ± 1.02 mg
Swelling degree [4, 7]: 7.56 ± 2.05 (mg) (%)
ear swelling inhibition rate compared with Indomethacin ([4]; 10 mg/kg): close to that of Indomethacin
Ear mass difference [4, 8]: 7.68 ± 0.39 mg
Swelling degree [4, 8]: 6.59 ± 1.96 (mg) (%)
inhibition at 5 mg/kg ([4]; Mus musculus, po, ear swelling, 5 mg/kg gavage, read-out: Inhibition rate): 30.3%
inhibition at 10 mg/kg ([4]; Mus musculus, po, ear swelling, 10 mg/kg gavage, read-out: Inhibition rate): 39.3%
ear swelling of mice caused by xylene ([4]; compared with the model group): significantly inhibit ear swelling
